Data taken from the supplement of paper PMC10331698.
± gives the standard deviation of the averaged measurements.

Key:
Experiment in all cases: level (log10 ratio to DMSO vehicle control); higher = higher biomarker level / cell amount than vehicle control
Conditions in all cases: in DMSO
[1] = compound: OCC(F)(F)C(F)(F)C(F)(F)C(F)(F)C(F)(F)C(F)F [1H,1H,7H-Dodecafluoro-1-heptanol]
Description: (§1)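 BioMAP Diversity Plus panel of 12 human primary cell co-culture systems (3C, 4H, LPS, SAg, BT, BF4T, BE3C, CASM3C, HDF3CGF, KF3CT, MyoF, Mphg). Compounds were added 1 h before stimulation and left for 24 h (MyoF 48 h; BT 72 h for soluble read-outs or 6 d for IgG). Biomarkers were read by ELISA, cytotoxicity by SRB, PBMC viability and proliferation by Alamar Blue. Each well value was divided by the mean of 8 DMSO control wells on the same plate and log10 transformed; duplicate blinded samples were tested at 4 concentrations.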

[2] = compound: O=C(O)CCC(F)(F)C(F)(F)C(F)(F)F [3:3 Fluorotelomer carboxylic acid]
Description: as §1

[3] = compound: FC(F)(F)C(F)(F)C(F)(F)C(F)(F)C(F)(F)C(F)(F)C(F)(F)CCI [1-Iodo-1H,1H,2H,2H-perfluorononane]
Description: as §1

Test System | level (log10) ([1]; 6700 nM) | level (log10) ([1]; 20000 nM) | level (log10) ([1]; 60000 nM) | level (log10) ([2]; 6700 nM) | level (log10) ([2]; 20000 nM) | level (log10) ([2]; 60000 nM) | level (log10) ([3]; 6700 nM) | level (log10) ([3]; 20000 nM)
HDF3CGF:CXCL8/IL-8 | 0.0045 ± 0.016 | 0.0035 ± 0.019 | 0.0055 ± 0.0035 | -0.006 ± 0.016 | -0.002 ± 0.0099 | -0.004 ± 0.017 | 0.002 ± 0.0014 | 0.0165 ± 0.019
lMphg:CD106/VCAM-1 | -0.0115 ± 0.042 | -0.015 ± 0.037 | -0.027 ± 0.047 | 0.002 ± 0.013 | 0.009 ± 0.0014 | 0.0045 ± 0.013 | -0.009 ± 0.04 | -0.039 ± 0.075
CASM3C:M-CSF | -0.0045 ± 0.0035 | -0.0185 ± 0.0035 | 0.0145 ± 0.039 | -0.0055 ± 0.037 | -0.02 ± 0.018 | 0.0185 ± 0.028 | -0.0035 ± 0.0078 | 0.0125 ± 0.028
3C:CD106/VCAM-1 | 0.001 ± 0.0042 | -0.0245 ± 0.032 | -0.0195 ± 0.016 | -0.0135 ± 0.022 | -0.028 ± 0.024 | -0.019 ± 0.0085 | -0.015 ± 0.014 | -0.0115 ± 0.0021
3C:CD142/Tissue Factor | 0.001 ± 0.0057 | 0.017 ± 0.041 | 0.001 ± 0.05 | -0.024 ± 0.0014 | 0.0015 ± 0.0078 | 0.0275 ± 0.011 | 0.01 ± 0.0071 | 0.0065 ± 0.0078
CASM3C:LDLR | 0.0045 ± 0.05 | -0.0135 ± 0.028 | 0.014 ± 0.024 | -0.0165 ± 0.00071 | -0.0105 ± 0.0035 | 0.011 ± 0.027 | -0.016 ± 0.021 | 0.026 ± 0.024
HDF3CGF:CXCL11/I-TAC | 0.011 ± 0.0028 | 0 ± 0.018 | -0.0015 ± 0.011 | 0.0025 ± 0.0092 | -0.0065 ± 0.0078 | 0.012 ± 0.035 | -0.0295 ± 0.005 | -0.094 ± 0.018
lMphg:M-CSF | -0.0115 ± 0.005 | -0.0035 ± 0.0078 | 0.0085 ± 0.044 | -0.021 ± 0.024 | -0.008 ± 0.0085 | -0.0115 ± 0.0021 | -0.023 ± 0.037 | -0.015 ± 0.0014
CASM3C:CXCL8/IL-8 | 0.0055 ± 0.012 | 0.005 ± 0.013 | 0.0055 ± 0.00071 | -0.0025 ± 0.0021 | -0.008 ± 0.0014 | 0.0085 ± 0.022 | 0.004 ± 0.0042 | 0.004 ± 0.0028
lMphg:sIL-10 | 0.0085 ± 0.11 | -0.006 ± 0.031 | 0.0485 ± 0.0078 | -0.049 ± 0.073 | -0.035 ± 0.076 | -0.087 ± 0.016 | -0.0685 ± 0.00071 | -0.072 ± 0.021
BE3C:tPA | -0.0125 ± 0.0064 | -0.0285 ± 0.018 | -0.029 ± 0.018 | -0.0195 ± 0.0035 | -0.03 ± 0.016 | -0.0365 ± 0.015 | 0.004 ± 0.035 | 0.011 ± 0.035
BE3C:uPA | -0.0055 ± 0.032 | -0.004 ± 0.027 | -0.0055 ± 0.0035 | -0.0045 ± 0.023 | -0.018 ± 0.017 | -0.0115 ± 0.0021 | 0.003 ± 0.033 | -0.0125 ± 0.015
BE3C:MMP-9 | -0.009 ± 0.0028 | -0.0105 ± 0.00071 | -0.02 ± 0.0028 | -0.0025 ± 0.022 | 0.0085 ± 0.0078 | -0.0085 ± 0.025 | -0.0045 ± 0.013 | -0.0045 ± 0.026
CASM3C:IL-6 | -0.0165 ± 0.035 | -0.024 ± 0.021 | 0.008 ± 0.028 | -0.029 ± 0.016 | -0.0295 ± 0.015 | 0.0085 ± 0.018 | -0.0105 ± 0.013 | 0.0315 ± 0.056
lMphg:SRB-Mphg | -0.028 ± 0.095 | -0.046 ± 0.0085 | 0.0615 ± 0.052 | -0.019 ± 0.13 | -0.047 ± 0.1 | -0.048 ± 0.12 | 0.001 ± 0.03 | 0.001 ± 0.011
CASM3C:CCL2/MCP-1 | -0.0065 ± 0.013 | -0.017 ± 0.02 | -0.008 ± 0.033 | -0.011 ± 0.021 | -0.015 ± 0.0028 | -0.0135 ± 0.022 | 0.003 ± 0.0099 | 0.02 ± 0.018
HDF3CGF:CCL2/MCP-1 | 0.012 ± 0.024 | 0.0105 ± 0.03 | 0.018 ± 0.017 | 0.004 ± 0.013 | 0.0005 ± 0.0035 | 0.015 ± 0.041 | -0.034 ± 0.017 | -0.018 ± 0.016
